According to ChEMBL document CHEMBL1201862, “PubChem BioAssay data set” (2004):
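Results reflect a 48-hour exposure of cells in 96-well plates to compound at five concentrations. At the GI50, growth is halved.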 Active and inactive are the calls of the source. No stated cut-off is given here; in the data, active = GI50 up to about 1.1 µM and inactive = higher.

What was measured:
Experiment in all cases: NCI tumour cell line growth inhibition, 48 h
A498 = tested on: A498
BT-549 = tested on: BT-549
CCRF-CEM = tested on: CCRF-CEM
HCC 2998 = tested on: HCC 2998
HCT-116 = tested on: HCT-116
HCT-15 = tested on: HCT-15
HT-29 = tested on: HT-29
KM12 = tested on: KM12
MCF7 = tested on: MCF7
MDA-MB-231 = tested on: MDA-MB-231
MDA-N = tested on: MDA-N
MOLT-4 = tested on: MOLT-4
NCI-H23 = tested on: NCI-H23
SF-295 = tested on: SF-295
SK-MEL-5 = tested on: SK-MEL-5
SN12C = tested on: SN12C
SR = tested on: SR
TK-10 = tested on: TK-10
U-251 = tested on: U-251
UACC-257 = tested on: UACC-257

Measured: GI50

C[n+]1cc2cc(O)c(O)cc2c2ccc3cc(O)c(O)cc3c21.c1ccncc1
active: MOLT-4 912 nM
2470 nM: HCT-15
inactive: A498 2.51 µM | BT-549 2.26 µM | CCRF-CEM 1.17 µM | HCC 2998 3.92 µM | HCT-116 1.4 µM | HT-29 3.3 µM | KM12 3.96 µM | MCF7 2.09 µM | MDA-MB-231 2.79 µM | MDA-N 3.25 µM | NCI-H23 2.42 µM | SF-295 3.39 µM | SK-MEL-5 3.24 µM | SN12C 2.96 µM | SR 2.09 µM | TK-10 4.01 µM | U-251 1.6 µM | UACC-257 4.25 µM

CN(C)CCCN1C(=S)N(CCCN(C)C)c2c3cc(O)ccc3nc3c([N+](=O)[O-])ccc1c23
inactive: BT-549 11.7 µM | CCRF-CEM 1.18 µM | HCC 2998 2.44 µM | KM12 2.7 µM | MDA-MB-231 3.71 µM | MDA-N 3.42 µM | NCI-H23 3.41 µM | SF-295 3.37 µM | SK-MEL-5 3.18 µM | SN12C 2.65 µM | TK-10 11.5 µM | U-251 2.46 µM | UACC-257 5.45 µM
1870 nM: HCT-15
active: A498 0.839 µM | HCT-116 1 µM | HT-29 0.757 µM | MCF7 0.902 µM | MOLT-4 95.3 nM | SR 0.278 µM

CCOC(=O)C1=C(C)NC(=S)NC1c1cccc(O)c1 (stereo not given) [MONASTROL]
39400 nM: HCT-15
inactive: A498 37.1 µM | BT-549 56.6 µM | CCRF-CEM 34.7 µM | HCC 2998 40 µM | HCT-116 34.9 µM | HT-29 > 86.3 µM | KM12 35 µM | MCF7 30 µM | MDA-MB-231 38.6 µM | MDA-N 18.2 µM | MOLT-4 33600 nM | NCI-H23 59.8 µM | SF-295 30.5 µM | SK-MEL-5 36.6 µM | SN12C 35.5 µM | SR 31.5 µM | TK-10 > 100 µM | U-251 33.9 µM | UACC-257 62.7 µM
